Results on 23 compounds are retold here after PubChem BioAssay AID330 (DTP/NCI, 2004).

In this experiment the test system is P388 leukemia ip, CD2F1 mice, survival T/C. As to the kind of experiment: NCI In Vivo Anticancer Drug Screen. Data for tumor model P388 Leukemia (intraperitoneal) in CD2F1 (CDF1) mice. The note with it: endpoint: median survival time, higher = longer survival. In outline:
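Mice carrying the transplanted tumor received test compound or vehicle. Survival was recorded in each group, and the value is the treated-group measurement divided by that of the vehicle-treated control group.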

Setting [1] is: dose: 100.0 mg/kg/injection, schedule: Q04DX002 (ip), vehicle: saline with Tween-80.
Where [2] appears, read: dose: 200.0 mg/kg/injection, schedule: Q04DX002 (ip), vehicle: saline with Tween-80.
[3] abbreviates: dose: 400.0 mg/kg/injection, schedule: Q04DX002 (ip), vehicle: saline with Tween-80.
The mark [4] stands for this setting: dose: 100.0 mg/kg/injection, schedule: Q04DX003 (ip), vehicle: Klucel (hydroxypropylcellulose) (HPC).
Setting [5] is: dose: 400.0 mg/kg/injection, schedule: Q04DX003 (ip), vehicle: Klucel (hydroxypropylcellulose) (HPC).
The mark [6] stands for this setting: dose: 100.0 mg/kg/injection, schedule: Q01DX009 (ip), vehicle: Klucel (hydroxypropylcellulose) (HPC).
Setting [7] is: dose: 200.0 mg/kg/injection, schedule: Q01DX009 (ip), vehicle: Klucel (hydroxypropylcellulose) (HPC).
The mark [8] stands for this setting: dose: 50.0 mg/kg/injection, schedule: Q01DX005 (ip), vehicle: Klucel (hydroxypropylcellulose) (HPC).
The mark [9] stands for this setting: dose: 100.0 mg/kg/injection, schedule: Q01DX005 (ip), vehicle: Klucel (hydroxypropylcellulose) (HPC).
Where [10] appears, read: dose: 200.0 mg/kg/injection, schedule: Q01DX005 (ip), vehicle: Klucel (hydroxypropylcellulose) (HPC).
Where [11] appears, read: dose: 60.0 mg/kg/injection, schedule: Q01DX005 (ip), vehicle: saline with Tween-80.
Where [12] appears, read: dose: 120.0 mg/kg/injection, schedule: Q01DX005 (ip), vehicle: saline with Tween-80.
The mark [13] stands for this setting: dose: 240.0 mg/kg/injection, schedule: Q01DX005 (ip), vehicle: saline with Tween-80.
Setting [14] is: dose: 25.0 mg/kg/injection, schedule: Q01DX005 (ip), vehicle: Klucel (hydroxypropylcellulose) (HPC).
Setting [15] is: dose: 50.0 mg/kg/injection, schedule: Q01DX009 (ip), vehicle: Klucel (hydroxypropylcellulose) (HPC).
Setting [16] is: dose: 25.0 mg/kg/injection, schedule: Q01DX009 (ip), vehicle: saline with Tween-80.
[17] abbreviates: dose: 50.0 mg/kg/injection, schedule: Q01DX009 (ip), vehicle: saline with Tween-80.

Several values for one entry are separate records, joined by “and”; a condition that tells them apart may be missing. Equal values may be shown once. Inconclusive results and toxic doses are left out. Peptide text beside a SMILES is read from it. * marks the point of attachment. Cbz = O=C(OCc1ccccc1)*; Bn = c1ccc(C*)cc1

On to `O=C1C=C(NCC2CCCN3CCCCC23)C(=O)c2ccccc21` (configuration not stated), for which the T/C is 112 % of control (dose: 94.62 mg/kg/injection, schedule: Q04DX002 (ip), vehicle: Klucel (hydroxypropylcellulose) (HPC)) and 111 % of control (dose: 189.25 mg/kg/injection, schedule: Q04DX002 (ip), vehicle: Klucel (hydroxypropylcellulose) (HPC)).

Regarding `CN(C)c1ccc(C2(c3ccccc3)c3ccccc3C(=O)N2N)cc1` (configuration not stated), the T/C reads like this: under setting [1], 89 % of control; under setting [2], 89 % of control; under setting [3], 90 % of control.

As for `S=C(Nc1ccc(I)cc1)SCc1ccc(Cl)cc1`, the T/C (dose: 50.0 mg/kg/injection, schedule: Q01DX009 (ip), vehicle: suspension in saline) was 104 % of control; the T/C (dose: 100.0 mg/kg/injection, schedule: Q01DX009 (ip), vehicle: suspension in saline) is 111 % of control; the T/C (dose: 200.0 mg/kg/injection, schedule: Q01DX009 (ip), vehicle: suspension in saline) was 119 % of control.

As to `COc1ccc(CCN/C=C2\Cc3c(Cl)cccc3C2=O)cc1OC`, the T/C is 100 % of control under setting [4]; 93 % of control (dose: 200.0 mg/kg/injection, schedule: Q04DX003 (ip), vehicle: Klucel (hydroxypropylcellulose) (HPC)); 99 % of control under setting [5].

Take `Cn1c(-c2ccc(Cl)cc2)cc2cc(CN3C(=O)c4ccccc4C3=O)ccc21`: the T/C is, setting by setting: (dose: 25.0 mg/kg/injection, schedule: Q04DX003 (ip), vehicle: Klucel (hydroxypropylcellulose) (HPC)) 95 % of control; (dose: 50.0 mg/kg/injection, schedule: Q04DX003 (ip), vehicle: Klucel (hydroxypropylcellulose) (HPC)) 96 % of control; under setting [4], 87 % of control and 88 % of control; under setting [5], 87 % of control.

As for `NC1=C(O)C(=O)C(c2ccccn2)O1` (configuration not stated), the T/C (dose: 25.0 mg/kg/injection, schedule: Q01DX001 (ip), vehicle: other) was 105 % of control; the T/C (dose: 50.0 mg/kg/injection, schedule: Q01DX001 (ip), vehicle: other) was 119 % of control; the T/C (dose: 100.0 mg/kg/injection, schedule: Q01DX001 (ip), vehicle: other) is 116 % of control.

`Nc1nc(SCC(=O)O)[nH]c(=O)c1NS(=O)(=O)c1ccccc1[N+](=O)[O-]`: the T/C runs as follows: (dose: 60.0 mg/kg/injection, schedule: Q01DX005 (ip), vehicle: Klucel (hydroxypropylcellulose) (HPC)) 90 % of control; (dose: 120.0 mg/kg/injection, schedule: Q01DX005 (ip), vehicle: Klucel (hydroxypropylcellulose) (HPC)) 91 % of control; (dose: 240.0 mg/kg/injection, schedule: Q01DX005 (ip), vehicle: Klucel (hydroxypropylcellulose) (HPC)) 96 % of control.

As to `Nc1ccc(-c2csc(COc3ccccc3)n2)cc1`, the T/C runs as follows: under setting [6], 106 % of control; under setting [7], 103 % of control.

As to `Cc1cc2c(cc1C)NC1C(=O)C(c3cccc([N+](=O)[O-])c3)OC1=N2` (configuration not stated), the T/C is, setting by setting: under setting [8], 111 % of control; under setting [9], 90 % of control; under setting [10], 87 % of control.

Consider `CC(C)C(O)Cc1cc(=O)[nH]c2ccccc12` (configuration not stated), for which the T/C was 87 % of control under setting [1], 87 % of control under setting [2] and 86 % of control under setting [3].

In the case of `O=C(Nc1ccc(Cl)cc1)Nc1nnc2nc(C(C(=O)c3ccc(F)cc3)c3nc4nnc(NC(=O)Nc5ccc(Cl)cc5)n4[nH]c3=O)c(=O)[nH]n12`, the T/C was 103 % of control under setting [11], 93 % of control under setting [12] and 86 % of control under setting [13].

For `CCC(=O)c1ccc(OCC(O)COc2c3ccccc3nc3ccccc23)cc1` (configuration not stated), the T/C by setting is: (dose: 50.0 mg/kg/injection, schedule: Q01DX005 (ip), vehicle: saline with Tween-80) 87 % of control; (dose: 100.0 mg/kg/injection, schedule: Q01DX005 (ip), vehicle: saline with Tween-80) 90 % of control; (dose: 200.0 mg/kg/injection, schedule: Q01DX005 (ip), vehicle: saline with Tween-80) 92 % of control.

For `CCCCNC(=O)C(C)OC(=O)C(CC)CCCC` (configuration not stated), the T/C under setting [14] is 105 % of control, the T/C under setting [8] is 100 % of control, the T/C under setting [9] is 102 % of control and the T/C under setting [10] is 105 % of control.

For `CN(C)CC[Si](C)(C)N(C)C`, the T/C (dose: 60.0 mg/kg/injection, schedule: Q01DX005 (ip), vehicle: saline) was 107 % of control and the T/C (dose: 120.0 mg/kg/injection, schedule: Q01DX005 (ip), vehicle: saline) was 102 % of control.

Consider `COc1ccc2c(c1)nc1c([n+]2/N=C(\[O-])CCN(C)C)-c2cccc3cccc-1c23`, for which the T/C is 110 % of control under setting [15], 111 % of control under setting [6] and 116 % of control under setting [7].

As to `COc1cccc2c1C(=O)c1c(O)c3c(c(O)c1C2=O)C[C@@](O)(C(=O)CO)C[C@@H]3OC1CC([N+](C)(C)C)C(O)C(C)O1` (some centres not stated), the T/C (dose: 3.89 mg/kg/injection, schedule: Q04DX003 (ip), vehicle: water) is 105 % of control; the T/C (dose: 6.48 mg/kg/injection, schedule: Q04DX003 (ip), vehicle: water) is 109 % of control; the T/C (dose: 12.5 mg/kg/injection, schedule: Q01DX001 (ip), vehicle: water) was 112 % of control; the T/C (dose: 12.5 mg/kg/injection, schedule: Q01DX009 (ip), vehicle: water) was 160 % of control and 187 % of control; the T/C (dose: 30.0 mg/kg/injection, schedule: Q04DX003 (ip), vehicle: water) was 150 % of control.

Regarding `CC(C)(C)c1cc(I)c(O)c(CN)c1`, the T/C (dose: 25.0 mg/kg/injection, schedule: Q01DX009 (ip), vehicle: saline) was 123 % of control.

Consider `NC(=O)c1ccc(C(N)=O)cc1`, for which the T/C (dose: 12.5 mg/kg/injection, schedule: Q01DX009 (ip), vehicle: saline with Tween-80) is 100 % of control; the T/C under setting [16] was 100 % of control; the T/C under setting [17] was 95 % of control.

Regarding `CC(C)(C)OC(=O)NCC(=O)NNC(=O)OC(C)(C)C`, the T/C was 118 % of control (dose: 100.0 mg/kg/injection, schedule: Q01DX009 (ip), vehicle: saline); 118 % of control (dose: 200.0 mg/kg/injection, schedule: Q01DX009 (ip), vehicle: saline); 118 % of control (dose: 400.0 mg/kg/injection, schedule: Q01DX009 (ip), vehicle: saline).

`CC1=NN(c2ccc(S(=O)(=O)O)cc2)C(=O)C1N=Nc1ccc(C)c(S(=O)(=O)Nc2ccccc2)c1` (configuration not stated): the T/C runs as follows: under setting [15], 101 % of control; under setting [6], 99 % of control; under setting [7], 101 % of control.

Regarding `NC(=O)C(Cc1ccccc1)NC(=O)C(CSCc1ccccc1)NC(=O)OCc1ccccc1` (configuration not stated) (Cbz-Cys(Bn)-Phe-NH2; configuration not given here), the T/C runs as follows: (dose: 12.5 mg/kg/injection, schedule: Q01DX005 (ip), vehicle: Klucel (hydroxypropylcellulose) (HPC)) 103 % of control; under setting [14], 102 % of control; under setting [8], 86 % of control and 91 % of control.

For the compound `NC(=O)c1csc([C@@H](O)Cc2ccccc2)n1`, the T/C is, setting by setting: under setting [11], 105 % of control; under setting [12], 106 % of control; under setting [13], 106 % of control.

As to `CCCCNC(=S)NC(=O)c1ccccc1`, the T/C is 95 % of control under setting [16] and 94 % of control under setting [17].
